Assay [1] concerns DU-145. The assay is described as follows: Antiproliferative activity against human DU-145 cells assessed as inhibition of cell growth incubated for 72 hrs by MTT assay. The conditions noted are these: DU-145, 72 h. In kind it is functional, cell-based. In general terms: Tetrazolium dyes change colour on reduction, which living cells bring about.
Assay [2] relates to NCI-H460. The assay is described as follows: cells. The conditions noted are these: Homo sapiens, NCI-H460, 72 h.
Description: Antiproliferative activity against human NCI-H460 cells assessed as inhibition of cell growth incubated for 72 hrs by MTT assay
The subject of assay [3] is MDA-MB-231. The assay is described as follows: cells. The conditions noted are these: Homo sapiens, MDA-MB-231, 72 h.
For assay [4], the system named is HepG2. Briefly: cells. The conditions noted are these: Homo sapiens, HepG2, 72 h.
Assay [5] concerns A549. Briefly: Antiproliferative activity against paclitaxel-resistant human A549 cells assessed as inhibition of cell growth incubated for 72 hrs by MTT assay. It counts as functional, cell-based. The conditions noted are these: A549, 72 h.
Assay [6] concerns B16-F10. The assay is described as follows: Antiproliferative activity against mouse B16-F10 cells assessed as inhibition of cell growth incubated for 72 hrs by MTT assay. It counts as functional, cell-based. The conditions noted are these: B16-F10, 72 h.
The subject of assay [7] is SW1990. The assay is described as follows: Antiproliferative activity against human SW1990 cells assessed as inhibition of cell growth incubated for 72 hrs by MTT assay. It counts as functional, cell-based. As to conditions: SW1990, 72 h.
Assay [8] concerns NCI-H1437. Briefly: Antiproliferative activity against human NCI-H1437 cells assessed as inhibition of cell growth incubated for 72 hrs by MTT assay. In kind it is functional, cell-based. The conditions noted are these: NCI-H1437, 72 h.
Assay [9] concerns HCT-116. The assay is described as follows: cells. As to conditions: Homo sapiens, HCT-116, 72 h.
Description: Antiproliferative activity against human HCT-116 cells assessed as inhibition of cell growth incubated for 72 hrs by MTT assay
Assay [10] has as its system NCI-H1299. Briefly: Antiproliferative activity against human NCI-H1299 cells assessed as inhibition of cell growth incubated for 72 hrs by MTT assay. In kind it is functional, cell-based. As to conditions: NCI-H1299, 72 h.
The test system of assay [11] is HCT-8. Briefly: Antiproliferative activity against human HCT-8 cells assessed as inhibition of cell growth incubated for 72 hrs by MTT assay. The conditions noted are these: HCT-8, 72 h. It counts as functional, cell-based.
Assay [12] has as its system A549. Briefly: Antitumor activity against paclitaxel-resistant human A549 cells xenografted in BALB/c nude mouse assessed as tumor growth inhibition at 24 mg/kg, po administered once daily and measured twice a week relative to control. It counts as functional. The conditions noted are these: read-out: TGI. For orientation: A xenograft is tissue or cells of one species grown in another, often human tumour cells in immunodeficient mice.

The subject of assay [13] is MCF7R. The assay is described as follows: Antiproliferative activity against paclitaxel-resistant human MCF7R cells assessed as inhibition of cell growth incubated for 72 hrs by MTT assay. It counts as functional, cell-based.
For assay [14], the system named is MCF7. Briefly: cells. As to conditions: Homo sapiens, MCF7, 72 h.
Description: Antiproliferative activity against human MCF7 cells assessed as inhibition of cell growth incubated for 72 hrs by MTT assay
The subject of assay [15] is HGC-27. Briefly: Antiproliferative activity against human HGC-27 cells assessed as inhibition of cell growth incubated for 72 hrs by MTT assay. It counts as functional, cell-based. The conditions noted are these: HGC-27, 72 h.
Assay [16] has as its system BGC-823. The assay is described as follows: Antiproliferative activity against human BGC-823 cells assessed as inhibition of cell growth incubated for 72 hrs by MTT assay. In kind it is functional, cell-based. As to conditions: BGC-823, 72 h.
In assay [17] the test system is HUVEC. Briefly: Anti-angiogenesis activity against HUVEC cells assessed as inhibition of cell growth incubated for 72 hrs by MTT assay. In kind it is functional, cell-based. As to conditions: Homo sapiens.
Assay [18] has as its system A549. Briefly: cells. As to conditions: Homo sapiens, A549, 72 h.

The values that follow come from ChEMBL document CHEMBL5150075 (J Med Chem, 2022).

SMILES strings stand for the structures. pIC50: −log10 of the molar value. A value given as a limit tells only on which side of the number the result lay.

For orientation: pIC50 means the IC50 on a negative log10 scale, so that one unit is a factor of ten. For `CCCc1ccc(S(=O)(=O)Nc2cc(C(=O)NCc3cccnc3)ccc2C)cc1`, in assay [1], the pIC50 was 5.01.

As to `Cc1ccc(S(=O)(=O)Nc2ccc(C)c(C(=O)NCc3cccnc3)c2)cc1`, the negative logarithm of the IC50 (pIC50) in [1] was 5.70. On to `Cc1ccc(C(=O)NCc2cccnc2)cc1NS(=O)(=O)c1ccc(C(F)(F)F)cc1`, for which, in assay [1], the negative logarithm of the IC50 (pIC50) was 5.28.

As to `Cc1ccc(CNC(=O)c2ccc(C)c(NS(=O)(=O)c3ccc(C4CC4)cc3)c2)cn1`, the negative-log IC50 (pIC50) in assay [1] was 7.92. On to `Cc1ccc(C(=O)NCc2cccnc2)cc1NS(=O)(=O)c1ccc2c(c1)CCC2`, for which the negative-log IC50 (pIC50) in assay [1] is 6.05.

For `Cc1ccc(S(=O)(=O)Nc2cc(C(=O)NCCc3cccnc3)ccc2C)cc1`, the pIC50 in assay [1] was < 5.00. `CC(=O)O[C@H]1C(=O)[C@@]2(C)[C@H]([C@H](OC(=O)c3ccccc3)[C@]3(O)C[C@H](OC(=O)[C@H](O)[C@@H](NC(=O)c4ccccc4)c4ccccc4)C(C)=C1C3(C)C)[C@]1(OC(C)=O)CO[C@@H]1C[C@@H]2O` [PACLITAXEL]: the negative-log IC50 (pIC50) is > 9.00 in assay [2]; > 9.00 in assay [3]; > 9.00 in assay [4]; 6.41 in [5]; > 9.00 in [6]; 8.00 in assay [7]. In addition, the negative-log IC50 (pIC50) in assay [8] is > 9.00; in [9], > 9.00; in assay [10] it was 8.05; in assay [11], 7.07; in assay [1], > 9.00; in assay [13], 6.72. Also, the pIC50 in assay [14] is > 9.00; in assay [15] it was > 9.00; in [16], > 9.00; in [17], 7.15. Moreover, the inhibition in vivo at 24 mg/kg in [12] was determined as 53.8%. As to `Cc1ccc(C(=O)NCc2cccnc2)cc1NS(=O)(=O)c1ccc2c(c1)CCO2`, the negative-log IC50 (pIC50) in assay [1] was 5.92.

Regarding `Cc1ccc(C(=O)NCc2cccnc2)cc1NS(=O)(=O)c1ccc(C(C)C)cc1`, the pIC50 in assay [1] is 6.00. Consider `Cc1ccc(S(=O)(=O)Nc2cc(C(=O)NCc3ccncc3)ccc2C)cc1`, for which the pIC50 in [1] was 5.77.

On to `Cc1ccc(S(=O)(=O)Nc2cc(C(=O)NCc3cccnc3)ccc2F)cc1`, for which the pIC50 in assay [1] is 6.10. Same read-out and setting: the same measure for `Cc1ccc(C(=O)NCc2cccnc2)cc1NS(=O)(=O)c1ccc(C#N)cc1`: < 5.00; for `Cc1ccc(S(=O)(=O)Nc2cc(C(=O)NC3(c4cnccn4)CC3)ccc2C)cc1`: 6.10. The same measure, in the same setting: the same measure for `COc1ccc(C(=O)NCc2cccnc2)cc1NS(=O)(=O)c1ccc(C)cc1`: 5.02; for `Cc1ccc(C(=O)NCc2cccnc2)cc1NS(=O)(=O)c1ccc2c(c1)OCO2`: 6.21; for `Cc1ccc(C(=O)NCc2cccnc2)cc1NS(=O)(=O)c1ccc2c(c1)OCCO2`: 6.38. Consider `Cc1ccc(C(=O)NCc2cccnc2)cc1NS(=O)(=O)c1ccc2ccccc2c1`, for which the negative-log IC50 (pIC50) in [1] was 6.00.

As to `Cc1ccc(C(=O)NCc2cccnc2)cc1NS(=O)(=O)c1ccccc1`, the negative logarithm of the IC50 (pIC50) in assay [1] is < 5.00.

For the compound `Cc1ccc(S(=O)(=O)Nc2cc(C(=O)NCc3cccnc3)ccc2C)c(C)c1`, the negative logarithm of the IC50 (pIC50) in assay [1] is 6.30.

For the compound `Cc1ccc(S(=O)(=O)Nc2cc(C(=O)NCc3cccnc3)ccc2C(F)(F)F)cc1`, the negative-log IC50 (pIC50) in [1] is < 5.00. On the same count and under the same terms, the same measure for `Cc1ccc(S(=O)(=O)Nc2cc(C(=O)NCc3cccnc3)cc(C(F)(F)F)c2)cc1`: < 5.00.

Regarding `Cc1ccc(S(=O)(=O)Nc2ccc(F)c(C(=O)NCc3cccnc3)c2)cc1`, the pIC50 in [1] is < 5.00.

As to `Cc1ccc(C(=O)NCc2cccnc2)cc1NS(=O)(=O)c1ccc(C2CC2)cc1`, the pIC50 in [1] is 7.30. For `Cc1ccc(S(=O)(=O)Nc2cc(C(=O)NCc3ccnnc3)ccc2C)cc1`, the negative-log IC50 (pIC50) in [1] was 5.89. The same measure, in the same setting: the same measure for `COc1ccc(S(=O)(=O)Nc2cc(C(=O)NCc3cccnc3)ccc2C)cc1`: 6.74. Take `COc1cc2c(c(OC)c1OC)-c1ccc(OC)c(=O)cc1[C@@H](NC(C)=O)CC2` [COLCHICINE]: the negative-log IC50 (pIC50) was 7.52 in assay [18]; 7.27 in assay [2]; 7.64 in assay [3]; 8.70 in [4]; 8.52 in assay [6]; 8.00 in [7]. The negative-log IC50 (pIC50) is 8.70 in [8]; 8.52 in assay [9]; 8.40 in assay [10]; 7.66 in assay [11]; 8.52 in [1]; 8.22 in assay [14]. For the same compound, the negative logarithm of the IC50 (pIC50) is 8.52 in assay [15] and 7.80 in assay [16]. Consider `Cc1ccc(S(=O)(=O)Nc2cc(C(=O)NCc3ccc(C(F)(F)F)nc3)ccc2C)cc1`, for which the negative-log IC50 (pIC50) in assay [1] is 6.70.

For `Cc1ccc(S(=O)(=O)Nc2cc(C(=O)NCc3cccnc3)ccc2C)cc1C`, the pIC50 in [1] is 6.01.

`Cc1ccc(S(=O)(=O)Nc2cc(C(=O)NC(C)c3cnccn3)ccc2C)cc1` (stereo not drawn): the pIC50 in [1] was 6.29. Same read-out and setting: the result for `CNC(=O)c1ccc(C)c(NS(=O)(=O)c2ccc(C)cc2)c1` reads < 5.00.

`Cc1ccc(S(=O)(=O)Nc2cc(C(=O)Nc3cccnc3)ccc2C)cc1`: the negative-log IC50 (pIC50) in assay [1] was < 5.00. The same measure, in the same setting: the result for `Cc1ccc(S(=O)(=O)Nc2cc(C(=O)NCc3cccnc3)ccc2Cl)cc1` reads 6.10. As for `Cc1ccc(S(=O)(=O)Nc2cc(C(=O)NCc3cccnc3)ccc2C)cc1`, in assay [1], the pIC50 is 6.92. On the same count and under the same terms, the same measure for `Cc1ccc(S(=O)(=O)Nc2cc(Cl)cc(C(=O)NCc3cccnc3)c2)cc1`: 6.47; for `Cc1ccc(S(=O)(=O)Nc2cc(C(=O)NCc3ccccn3)ccc2C)cc1`: < 5.00; for `Cc1ccc(S(=O)(=O)Nc2cc(C(=O)NCc3cnccn3)ccc2C)cc1`: < 5.00.

On to `CCCCc1ccc(S(=O)(=O)Nc2cc(C(=O)NCc3cccnc3)ccc2C)cc1`, for which the pIC50 in [1] is < 5.00. Still for that read-out and setting: the result for `Cc1ccc(S(=O)(=O)Nc2cccc(C(=O)NCc3cccnc3)c2)cc1` reads 6.15; that for `Cc1ccc(C(=O)NCc2cccnc2)cc1NS(=O)(=O)c1ccc(OC(F)(F)F)cc1`, < 5.00; that for `Cc1ccc(S(=O)(=O)Nc2cc(F)cc(C(=O)NCc3cccnc3)c2)cc1`, 6.05. For `CCc1ccc(S(=O)(=O)Nc2cc(C(=O)NCc3ccc(C)nc3)ccc2C)cc1`, the pIC50 in assay [1] is 7.96. Turning to `COc1cc(NS(=O)(=O)c2ccc(C)cc2)cc(C(=O)NCc2cccnc2)c1`, the negative-log IC50 (pIC50) in assay [1] was 5.21. On the same count and under the same terms, the result for `Cc1ccc(S(=O)(=O)Nc2ccc(Cl)c(C(=O)NCc3cccnc3)c2)cc1` reads < 5.00; that for `Cc1ccc(S(=O)(=O)Nc2cc(C#N)cc(C(=O)NCc3cccnc3)c2)cc1`, < 5.00; that for `Cc1ccc(S(=O)(=O)Nc2cc(C)cc(C(=O)NCc3cccnc3)c2)cc1`, 6.47.

With `Cc1ccc(C(=O)NCc2cccnc2)cc1NS(=O)(=O)c1ccc(F)cc1`, the pIC50 in assay [1] is 5.46. Still for that read-out and setting: the same measure for `CCOc1ccc(S(=O)(=O)Nc2cc(C(=O)NCc3cccnc3)ccc2C)cc1`: 6.07. The same measure, in the same setting: the result for `COc1ccc(NS(=O)(=O)c2ccc(C)cc2)cc1C(=O)NCc1cccnc1` reads < 5.00; that for `Cc1ccc(C(=O)NCc2cccnc2)cc1NS(=O)(=O)c1ccc(Cl)cc1`, 6.03; that for `Cc1ccc(S(=O)(=O)Nc2cc(C(=O)NCc3ccc(Cl)nc3)ccc2C)cc1`, 7.19. The same measure, in the same setting: the same measure for `Cc1ccc(S(=O)(=O)Nc2cc(C(=O)NCc3ccccc3)ccc2C)cc1`: < 5.00; for `Cc1ccc(C(=O)NCc2cccnc2)cc1NS(=O)(=O)c1ccc(C(C)(C)C)cc1`: < 5.00.

Consider `CCc1ccc(S(=O)(=O)Nc2cc(C(=O)NCc3cccnc3)ccc2C)cc1`, for which, in [1], the negative logarithm of the IC50 (pIC50) is 7.40.

Regarding `CCc1ccc(C(=O)NCc2cccnc2)cc1NS(=O)(=O)c1ccc(C)cc1`, the pIC50 in assay [1] is 6.07.
